Data taken from US8772300B2, “Phenyl or pyridinyl-ethynyl derivatives” (Hoffmann-La Roche Inc., priority 2011, dated 2014).

Biological target: T1, human mGlu5a receptor (Homo sapiens, UniProt P41594)
T1 construct: expressed in transfected cells
Test: Intracellular Ca2+ mobilization assay (mGlu5 PAM)
Format: cell-based
Conditions: for Emax: HEK293, maximal response in % of the maximal stimulatory effect obtained with saturating concentrations of L-glutamate, HEK-293 human mGlu5a cells, read-out: Eff. (%); for EC50: HEK-293 cells stably transfected with human mGlu5a receptor, L-glutamate added at EC20 (typically around 80 μM) after 10-30 min pre-incubation with test compound, read-out: EC50 (nM) mGlu5PAM
Procedure: A monoclonal HEK-293 cell line stably transfected with a cDNA encoding for the human mGlu5a receptor was generated; for the work with mGlu5 Positive Allosteric Modulators (PAMs), a cell line with low receptor expression levels and low constitutive receptor activity was selected to allow the differentiation of agonistic versus PAM activity. Cells were cultured according to standard protocols (Freshney, 2000) in Dulbecco's Modified Eagle Medium with high glucose supplemented with 1 mM glutamine, 10% (vol/vol) heat-inactivated bovine calf serum, Penicillin/Streptomycin, 50 μg/ml hygromycin and 15 μg/ml blasticidin (all cell culture reagents and antibiotics from Invitrogen, Basel, Switzerland).
About 24 hrs before an experiment, 5×10^4 cells/well were seeded in poly-D-lysine coated, black/clear-bottomed 96-well plates. The cells were loaded with 2.5 μM Fluo-4AM in loading buffer (1×HBSS, 20 mM HEPES) for 1 hr at 37° C. and washed five times with loading buffer. The cells were transferred into a Functional Drug Screening System 7000 (Hamamatsu, Paris, France), and 11 half logarithmic serial dilutions of test compound at 37° C. were added and the cells were incubated for 10-30 min with on-line recording of fluorescence. Following this pre-incubation step, the agonist L-glutamate was added to the cells at a concentration corresponding to EC20 (typically around 80 μM) with on-line recording of fluorescence; in order to account for day-to-day variations in the responsiveness of cells, the EC20 of glutamate was determined immediately ahead of each experiment by recording of a full dose-response curve of glutamate.
Responses were measured as peak increase in fluorescence minus basal (i.e. fluorescence without addition of L-glutamate), normalized to the maximal stimulatory effect obtained with saturating concentrations of L-glutamate. Graphs were plotted with the % maximal stimulatory using XLfit, a curve fitting program that iteratively plots the data using Levenburg Marquardt algorithm. The single site competition analysis equation used was y=A+((B−A)/(1+((x/C)D))), where y is the % maximal stimulatory effect, A is the minimum y, B is the maximum y, C is the EC50, x is the log 10 of the concentration of the competing compound and D is the slope of the curve (the Hill Coefficient). From these curves the EC50 (concentration at which half maximal stimulation was achieved), the Hill coefficient as well as the maximal response in % of the maximal stimulatory effect obtained with saturating concentrations of L-glutamate were calculated.
A depression of the signal observed after addition of the EC20 concentration of L-glutamate was indicative of an inhibitory activity of the test compound.

T1 sequence (P41594 21-1180 isoform P41594-2 limits assumed): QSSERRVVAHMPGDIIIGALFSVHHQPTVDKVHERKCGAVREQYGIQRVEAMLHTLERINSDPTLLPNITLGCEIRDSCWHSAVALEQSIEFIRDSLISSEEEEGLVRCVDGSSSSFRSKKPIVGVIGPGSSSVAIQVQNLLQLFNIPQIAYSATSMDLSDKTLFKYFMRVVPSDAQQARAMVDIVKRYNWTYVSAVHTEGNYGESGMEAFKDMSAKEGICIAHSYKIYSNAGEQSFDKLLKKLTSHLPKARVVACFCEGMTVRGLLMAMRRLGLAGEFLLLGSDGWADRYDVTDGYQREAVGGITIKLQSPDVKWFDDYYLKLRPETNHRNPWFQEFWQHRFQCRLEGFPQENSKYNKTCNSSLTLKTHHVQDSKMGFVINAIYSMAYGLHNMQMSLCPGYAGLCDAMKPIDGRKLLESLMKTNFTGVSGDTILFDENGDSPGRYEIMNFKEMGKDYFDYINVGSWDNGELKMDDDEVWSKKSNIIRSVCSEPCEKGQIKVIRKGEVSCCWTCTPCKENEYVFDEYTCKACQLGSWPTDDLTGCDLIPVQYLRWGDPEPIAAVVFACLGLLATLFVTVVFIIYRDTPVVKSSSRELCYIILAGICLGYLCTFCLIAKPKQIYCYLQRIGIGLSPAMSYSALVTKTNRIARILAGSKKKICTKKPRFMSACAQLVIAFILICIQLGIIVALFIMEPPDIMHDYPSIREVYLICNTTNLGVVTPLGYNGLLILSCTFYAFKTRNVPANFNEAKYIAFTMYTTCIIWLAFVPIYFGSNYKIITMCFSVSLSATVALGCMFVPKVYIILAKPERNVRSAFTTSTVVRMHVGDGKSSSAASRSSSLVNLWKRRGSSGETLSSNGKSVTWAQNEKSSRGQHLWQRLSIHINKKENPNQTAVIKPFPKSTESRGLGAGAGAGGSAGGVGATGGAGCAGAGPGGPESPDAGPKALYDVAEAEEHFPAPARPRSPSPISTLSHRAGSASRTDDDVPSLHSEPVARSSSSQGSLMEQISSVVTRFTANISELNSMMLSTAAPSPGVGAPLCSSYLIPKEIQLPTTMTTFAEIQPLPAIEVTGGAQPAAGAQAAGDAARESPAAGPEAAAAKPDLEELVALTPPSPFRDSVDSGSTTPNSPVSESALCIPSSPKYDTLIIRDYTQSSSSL

| SMILES | Emax | EC50 |
| --- | --- | --- |
| CC(C)(C)NC(=O)c1ncc(C#Cc2cccc(Cl)c2)cn1 [Example 14, 5-(3-Chloro-phenylethynyl)-pyrimidine-2-carboxylic Acid tert-butylamide] | 95% | 111 nM |
| CN(C(=O)c1ccc(C#Cc2cccnc2)cn1)C(C)(C)C [Example 6, 5-Pyridin-3-ylethynyl-pyridine-2-carboxylic Acid tert-butyl-methyl-amide] | 70% | 72 nM |
| CN(C(=O)c1ncc(C#Cc2cc(F)ccc2F)cc1F)C(C)(C)C [Example 23, 5-(2,5-Difluoro-phenylethynyl)-3-fluoro-pyridine-2-carboxylic Acid tert-butyl-methyl-amide] | 38% | 10 nM |
| CN(C(=O)c1ccc(C#Cc2cccc(F)c2)cn1)C(C)(C)C [Example 3, 5-(3-Fluoro-phenylethynyl)-pyridine-2-carboxylic Acid tert-butyl-methyl-amide] | 64% | 16 nM |
| CC1(C)CN(C(=O)c2ccc(C#Cc3cccc(F)c3)cn2)CCO1 [Example 35, (2,2-Dimethyl-morpholin-4-yl)-[5-(3-fluoro-phenylethynyl)-pyridin-2-yl]-methanone] | 57% | 46 nM |
| Cc1cc(C#Cc2cncc(Cl)c2)cnc1C(=O)N(C)C(C)(C)C [Example 20, 5-(5-Chloro-pyridin-3-ylethynyl)-3-methyl-pyridine-2-carboxylic Acid tert-butyl-methyl-amide] | 26% | 102 nM |
| CN(C(=O)c1ccc(C#Cc2ccc(F)c(F)c2)cn1)C1(C)COC1 [Example 30, 5-(3,4-Difluoro-phenylethynyl)-pyridine-2-carboxylic Acid methyl-(3-methyl-oxetan-3-yl)-amide] | 50% | 60 nM |
| CN(C(=O)c1ncc(C#Cc2cncc(Cl)c2)cn1)C(C)(C)C [Example 16, 5-(5-Chloro-pyridin-3-ylethynyl)-pyrimidine-2-carboxylic Acid tert-butyl-methyl-amide] | 27% | 58 nM |

Continued, values first:

| Emax | EC50 | SMILES |
| --- | --- | --- |
| 47% | 27 nM | CC(NC(=O)c1ccc(C#Cc2ccnc(Cl)c2)cn1)C(F)(F)F (single isomer, unassigned) [Example 59, (R) or (S)-5-(2-Chloro-pyridin-4-ylethynyl)-pyridine-2-carboxylic Acid (2,2,2-trifluoro-1-methyl-ethyl)-amide] |
| 57% | 54 nM | CC1(C)CC(O)CCN1C(=O)c1ncc(C#Cc2cccc(F)c2)cc1F (racemic) [Example 67, (RS)-[3-Fluoro-5-(3-fluoro-phenylethynyl)-pyridin-2-yl]-(4-hydroxy-2,2-dimethyl-piperidin-1-yl)-methanone] |
| 29% | 22 nM | CN(C(=O)c1ccc(C#Cc2cccc(Cl)c2)cn1)C(C)(C)C(F)(F)F [Example 56, 5-(3-Chloro-phenylethynyl)-pyridine-2-carboxylic Acid methyl-(2,2,2-trifluoro-1,1-dimethyl-ethyl)-amide] |
| 45% | 72 nM | CC1(C)CN(C(=O)c2ccc(C#Cc3cccc(F)c3)cn2)CCC1O (racemic) [Example 41, (RS)-[5-(3-Fluoro-phenylethynyl)-pyridin-2-yl]-(4-hydroxy-3,3-dimethyl-piperidin-1-yl)-methanone] |
| 46% | 27 nM | Cc1cccc(C#Cc2ccc(C(=O)N(C)C3(C(F)(F)F)CC3)nc2)c1 [Example 34, 5-m-Tolylethynyl-pyridine-2-carboxylic Acid methyl-(1-trifluoromethyl-cyclopropyl)-amide] |
| 38% | 79 nM | CC1(O)CCN(C(=O)c2ccc(C#Cc3cccc(F)c3)cn2)CC1 [Example 37, [5-(3-Fluoro-phenylethynyl)-pyridin-2-yl]-(4-hydroxy-4-methyl-piperidin-1-yl)-methanone] |
